Source: US20260102377A1, “COMPOSITIONS AND METHODS FOR TREATING MYASTHENIA GRAVIS” (priority 2022, published 2026)

Experiments:
EAMG rats = test: 14-day dosing in EAMG animals: rotarod test; format: in vivo, rat
Description: To induce EAMG, 250 μL of emulsion of Complete Freund's Adjuvant, consisting of heat-inactivated Mycobacterium tuberculosis H37Ra in non-metabolizable oils, together with Phosphate-Buffered Saline (PBS) and 80 μg of the extracellular α-domain peptide fragment of the human nicotinic acetylcholine receptor (antigen) was injected subcutaneously in seven-week-old, anaesthetized Lewis rats. The disease-inducing antigen was supplied by the Hellenic Pasteur institute3. The emulsion was deposited at the tail base, left hindleg, and right foreleg. After injection, animals were allowed to recover and returned to their home cage maintained in ventilated racks under controlled temperature (20 to 22° C.) and humidity (˜55%) control, under a 12-h light/12-h dark cycle with food and water provided ad libitum. The animals had pathogen free status and the housing and changing system was designed to assure that the pathogen free status was preserved during the study. The EAMG rats were observed, weighed, and scored for MG symptoms weekly until symptoms of MG developed, whereafter animals were observed daily.
Sixteen (16) rats with an EAMG clinical score of 2 were allocated to the study and stratified to one of the two treatment groups (vehicle vs NMD670, 8 rats per group). Stratification was based on rotarod endurance and grip strength performance with the aim to obtain similar average starting points for the two groups. Grip strength and Rotarod performance were measured prior to treatment (day 0) and on days 1, 4, 7, 9, 11 and 14 during treatment. The treatment was administered by per oral gavage. Dosing was twice daily with 20 mg/kg NMD670 or vehicle (sterile water) for 14 days unless the rat was subjected to premature termination due to reaching humane endpoints. The dose solutions for the treatment groups were blinded. Thus, experimenters and subsequent analysis were blinded as to which group received CIC-1 inhibitor and which group received vehicle. Full analysis of data and statistics were concluded before unblinding the data. Plasma samples were obtained on days 0, 1 and 14, with muscle samples obtained on day 14 at termination.
Rotarod test was conducted on a Touchscreen Rotarod from Panlab (Model LE8305, Harward Apparatus). For testing the running performance, the rat was placed in one of 4 running lanes on the rotating rod that rats were challenged to run on. Prior to the first test on the rotarod on Day 0, the rat was allowed a 1-minute run at 4 rotations per minute (RPM), to familiarize with the apparatus. The rat was then allowed at least 5 minutes of rest before the test was conducted. To test the running performance, the rat was challenged with a protocol consisting of constantly accelerating speed from 4 to 40 RPM over 420 seconds. Test occasions consisted of 3 runs with at least 5 and no more than 15 minutes of rest between each run. Performance was quantified by the duration that the rat was able to remain on the rotating rod. Average values of the 3 runs per test occasion were used for further data processing.

[1] = test system: soleus, EDL and diaphragm muscles from EAMG rats; test: Force measurement in isolated intact nerve-muscle preparations; design: species or system rat; conditions: for Relative force area after addition of NMD670 (Initial area = 100): NMD670 between 20 and 40 μM
Excerpt: To allow for measurements of electrophysiological properties at the cellular level and for measurements of force, it was necessary to isolate nerve-muscle preparations from the rats. To this end, animals were sacrificed, and muscles were dissected out with 1 to 3 cm of intact nerve. The nerve-muscle preparations were then transferred to the organ baths used for the particular experiments (see below) and perfused with Normal Krebs-Ringer (NKR) solution, consisting of (in mM); 122 NaCl, 25 NaHCO3, 2.8 KCl, 1.2 KH2PO4, 1.2 MgSO4 1.27 CaCl2 and 5 D-glucose. This NKR solution was continuously gassed with a mixture of 95% oxygen and 5% CO2, to maintain a pH of approx. 7.4. In some experiments methyl-sulphate was used to replace Cl^− in the solution. All chemicals used were of analytical grade.
To determine whether enhanced neuromuscular transmission with CIC-1 inhibition could restore force in whole muscles from EAMG animals, experiments were conducted with soleus, extensor digitorum longus, and diaphragm muscles from EAMG rats. All muscles were mounted on force transducers (FORT 250, WPI instruments DE) in pre-warmed chambers (30° C.) containing 20 mL NKR each. The acquisition program Signal (version 6.4, Cambridge Electronics Design Ltd, Cambridge, UK) was used to control stimulation, delivered by an isolated stimulator (isostim 01D NPI electronics, DE) and for recording data via an analogue-digital converter (Micro 1401 Cambridge Electronics Design Ltd, Cambridge, UK). After equilibration in chambers, muscles were stretched to their optimal length and stimulated at a range of frequencies. For the duration of the experiment muscles were stimulated both directly and via the nerve at 12 V. This was accomplished by changing the stimulation pulse duration between 0.02 ms for nerve stimulation and 0.2 ms for direct stimulation of the muscle fibres. Muscles were stimulated every 10 min at 60 Hz for 1 second, either directly or via the nerve. To test for effect of NMD670 on force generation, different concentrations of NMD670 were added directly to the experimental chamber of the individual muscles.

Tablet dissolution = format: physicochemical; conditions: after a maximum of 60 minutes; USP2 paddles 75 RPM, 900 ml dissolution media pH 6.8, 37° C.

For `C[C@H](Oc1ccc(Br)cc1-c1ccon1)C(=O)O` [NMD670, (2S)-2-[4-bromo-2-(1,2-oxazol-3-yl)phenoxy]propanoic acid], the “Endurance on rotarod over vehicle group throughout the period of treatment” value (EAMG rats; 14-day chronic dosing, 20 mg/kg twice daily) was “higher endurance on rotarod”, the “Rotarod performance (latency to fall in seconds)” value (“Rotarod performance” below) (EAMG rats; day 0 (prior to treatment), 20 mg/kg twice daily per oral, P = 0.9478 vs vehicle) was 28.5 ± 7.3 s and the “Rotarod performance” value (EAMG rats; day 1, 20 mg/kg twice daily per oral, P > 0.9999 vs vehicle) was 38.4 ± 8.7 s. The “Rotarod performance” value (EAMG rats; day 4, 20 mg/kg twice daily per oral, P = 0.4613 vs vehicle) was 37.8 ± 10.1 s, the “Rotarod performance” value (EAMG rats; day 7, 20 mg/kg twice daily per oral, P = 0.7852 vs vehicle) was 29.1 ± 8.8 s and the “Rotarod performance” value (EAMG rats; day 9, 20 mg/kg twice daily per oral, P = 0.6753 vs vehicle) was 27.5 ± 9.1 s. For the same compound, the “Rotarod performance” value (EAMG rats; day 11, 20 mg/kg twice daily per oral, P = 0.0335 vs vehicle) was 35.5 ± 12.6 s, the “Rotarod performance” value (EAMG rats; day 14, 20 mg/kg twice daily per oral, P = 0.8122 vs vehicle) was 19.0 ± 5.7 s and the “Force from isolated soleus muscle” value ([1]; 20 μM NMD670, nerve-stimulated at 60 Hz, EAMG rats) was “could be restored”. For the same compound, the “Relative force area after addition of NMD670 (Initial area = 100)” value (“Relative force area after addition” for short) ([1]; Diaphragm (12) from EAMG rats) was 120.2 ± 5.04, the “Relative force area after addition” value ([1]; EDL (14) from EAMG rats) was 235.1 ± 25.0 and the “Force generation in isolated soleus, EDL and diaphragm muscles compared with muscles from healthy animals” value ([1]; NMD670 20 μM or between 20 and 40 μM, EAMG animals) was “restored force generation”. For the same compound, the “Relative force area after addition” value ([1]; Soleus (14) from EAMG rats) was 199 ± 17.1 and the “NMD670 released from the tablets” value (Tablet dissolution) was “Not less than 80%”.
